# Experiments:
# [1] = system: tert-immortalized human mammaryepithelial cells (HMEC-tert); experiment: Cell viability of normal cells HMEC-tert vs SUM159; format: cell-based; conditions: 0.25-10 μM, 48 hours
# Procedure: Cell viability was evaluated by using the MTT assay in triple replicates in one experiment and repeated for three times. Cancer cells were seeded in 96-well plates at a density of 3,000 cells per well. The cells were incubated at 37° C. for a period of 24 hours. Escalating concentrations of IL-6/gp130 inhibitors were added in triplicate to the plates in the presence of 10% FBS. After incubation for 48 or 72 hours, a stock solution of MTT (0.5 mg/ml) was then added to each well containing the treated cells, followed by incubation at 37° C. for 3 h. After removal of medium, the MTT dye was dissolved with spectrophotometric grade DMSO and the absorbance was read at 570 nm. The IC50 value is determined by interpolation based on the absorbance value halfway between positive and negative controls. In the experiment of LLM4 showing higher efficacy in cancer cells with higher levels of IL-6, instead of using medium with 10% FBS, DMEM with 0% FBS was used in order to eliminate the influence of trace amounts of growth factors and cytokines in FBS.
# To examine whether the novel compounds show cytotoxicity to normal cells, cell viability was also measured when the normal cell line tert-immortalized human mammaryepithelial cells (HMEC-tert) [Yang H, Pinello C E, Luo J, et al. Small-molecule inhibitors of acetyltransferase p300 identified by high-throughput screening are potent anticancer agents. […]
# [2] = system: STAT3 phosphorylation in SUM159 cells; experiment: Western blot, STAT3 phosphorylation in SUM159 (IL-6 autocrine); format: cell-based, human; conditions: SUM159, 1-4 μM, 16 h
# Procedure: (§1) Cells were harvested and lysed in cold radioimmunoprecipitation assay (RIPA) lysis buffer containing proteasome inhibitor cocktail and phosphatase inhibitor cocktail. The protein concentrations were determined using the BCA Protein Assay kit. After adding the loading buffer and boiling at 95° C. for 10 minutes, equivalent amounts of proteins were loaded on and separated by SDS-PAGE, and then were transferred to PVDF membranes. Membranes were probed with primary antibodies (1:1000) against phospho-STAT3 (Tyr705), STAT3, phospho-STAT1 (Tyr701), STAT1, phospho-STAT6 (Tyr 641), STAT6, and GAPDH, respectively, and horseradish peroxidase (HRP)-conjugated secondary antibody (1:10000) (Cell Signaling Technology, Beverly, Mass.). Membranes were analyzed using Enhanced Chemiluminescence Plus reagents and either scanned with the Storm Scanner (Amersham Pharmacia Biotech, Inc., Piscataway, N.J.) or imaged with ChemiDoc MP imaging system (Bio-Rad, Hercules, Calif.). […] The cells were harvested after 30 minutes and analyzed by Western blot.
# BxPC-3 and SUM159 cells were seeded in 10 cm plates (1 million cells per plate) and allowed to adhere overnight. […] Then cells were harvested and analyzed by western blotting.
# SUM159 cells were seeded in 10 cm plates (1 million cells per plate) and allowed to adhere overnight. […] Then cells were harvested and analyzed by western blotting.
# [3] = system: LIF induced STAT3 phosphorylation; experiment: Western blot, LIF induced STAT3 phosphorylation in MCF7; format: cell-based, human
# Procedure: as §1
# (§2) MCF7 breast cancer cells were seeded in 10 cm plates (1 million cells per plate) and allowed to adhere overnight. […] The cells were harvested after 30 minutes and analyzed by western blotting.
# [4] = system: OSM induced STAT3 phosphorylation; experiment: Western blot, OSM induced STAT3 phosphorylation in MCF7; format: cell-based, human
# Procedure: as §1, §2
# [5] = system: INF-γ induced STAT1 phosphorylation; experiment: Western blot, INF-γ induced STAT1 phosphorylation in MCF7; format: cell-based, human; conditions: MCF7, pre-treatment 2, 3 and 4 hours
# Procedure: as §1, §2
# [6] = system: IL-4 induced STAT6 phosphorylation; experiment: Western blot, IL-4 induced STAT6 phosphorylation in MCF7; format: cell-based, human; conditions: MCF7, pre-treatment 2, 3 and 4 hours
# Procedure: as §1, §2
Compound,differential cytotoxic effects to HMEC-tert and SUM159 cells [1],inhibition of STAT3 phosphorylation [2],"inhibition of LIF induced STAT3 phosphorylation ([3]; MCF7, 4 μM)","inhibition of OSM induced STAT3 phosphorylation ([4]; MCF7, 4 μM)",effect on STAT1 phosphorylation [5],effect on STAT6 phosphorylation [6],"LIF induced STAT3 phosphorylation ([3]; MCF7, 15 μM, 2, 3 and 4 hours)","OSM induced STAT3 phosphorylation ([4]; MCF7, 15 μM, 2, 3 and 4 hours)",effect on INF-γ induced STAT1 phosphorylation ([5]; 15 μM),effect on IL-4 induced STAT6 phosphorylation ([6]; 15 μM)
"O=C(Nc1ccccc1-c1ccn[nH]1)c1ccc(OCCN2CCCCC2)cc1 [LLM418, N-(2-(1H-pyrazol-5-yl)phenyl)-4-(2-(piperidin-1-yl)ethoxy)benzamide]",selectively kill cancer cells,stronger inhibition than LLM414,very little inhibitory effect,very little inhibitory effect,little effect,little effect,,,,
"O=C(Nc1cccc(OCCN2CCCCC2)c1)Nc1cccc(-c2ccn[nH]2)c1 [LLM414, 1-(3-(1H-pyrazol-5-yl)phenyl)-3-(3-(2-(piperidin-1-yl)ethoxy)phenyl)urea]",selectively kill cancer cells,inhibited STAT3 phosphorylation in SUM159 cells,,,,,,,,
"O=C(Nc1cc(F)ccc1-n1cccc1)c1ccc(OCCCN2CCCCC2)cc1 [LLM4, N-(5-fluoro-2-(1H-pyrrol-1-yl)phenyl)-4-(3-(piperidin-1-yl)propoxy)benzamide]",,,,,,,remain intact,remain intact,no effect,no effect

# From US11530181B2, “IL-6 inhibitors and methods of treatment” (University of Florida Research Foundation, Incorporated, priority 2018, dated 2022)
